Results as given in patent publication US8748415B2 (priority 2011, dated 2014).

Test system: recombinant NL4-3 virus (Renilla luciferase in nef, Gag P373S)
Assay: HIV cell culture assay (luciferase activity in MT-2 cells infected with NLRluc recombinant virus)
Assay type: cell-based
Conditions: NL43, MT-2 cells infected 4-5 days with NLRluc recombinant virus, class symbol
Description: HIV cell culture assay—MT-2 cells and 293T cells were obtained from the NIH AIDS Research and Reference Reagent Program. MT-2 cells were propagated in RPMI 1640 media supplemented with 10% heat inactivated fetal bovine serum, […]. The 293T cells were propagated in DMEM media supplemented with 10% heat inactivated fetal bovine serum (FBS), 100 units/ml penicillin G and 100 μg/ml streptomycin. The proviral DNA clone of NL4-3 was obtained from the NIH AIDS Research and Reference Reagent Program. A recombinant NL4-3 virus, in which a section of the nef gene from NL4-3 was replaced with the Renilla luciferase gene, was used as a reference virus. In addition, residue Gag P373 was converted to P373S. Briefly, the recombinant virus was prepared by transfection of the altered proviral clone of NL4-3. Transfections were performed in 293T cells using LipofectAMINE PLUS from Invitrogen (Carlsbad, Calif.), according to manufacturer's instruction. The virus was titered in MT-2 cells using luciferase enzyme activity as a marker. Luciferase was quantitated using the Dual Luciferase kit from Promega (Madison, Wis.), with modifications to the manufacturer's protocol. The diluted Passive Lysis solution was pre-mixed with the re-suspended Luciferase Assay Reagent and the re-suspended Stop & Glo Substrate (2:1:1 ratio). Fifty (50) μL of the mixture was added to each aspirated well on assay plates and luciferase activity was measured immediately on a Wallac TriLux (Perkin-Elmer). Antiviral activities of inhibitors toward the recombinant virus were quantified by measuring luciferase activity in cells infected for 4-5 days with NLRluc recombinants in the presence serial dilutions of the inhibitor. Table 1 is the key for the data in Table 2.

SMILES | EC50
C=C(C)[C@@H]1CC[C@]2(CNCCOC)CC[C@]3(C)[C@H](CC[C@@H]4[C@@]5(C)CC=C(c6ccc(C(=O)O)cc6)C(C)(C)[C@@H]5CC[C@]43C)[C@@H]12 [Example 180, 4-((1R,3aS,5aR,5bR,7aR,11aS,11bR,13aR,13bR)-3a-((2-methoxyethylamino)methyl)-5a,5b,8,8,11a-pentamethyl-1-(prop-1-en-2-yl)-2,3,3a,4,5,5a,5b,6,7,7a,8,11,11a,11b,12,13,13a,13b-octadecahydro-1H-cyclopenta[a]chrysen-9-yl)benzoic acid] | < 100 nM
C=C(C)[C@@H]1CC[C@]2(CNCC(=O)O)CC[C@]3(C)[C@H](CC[C@@H]4[C@@]5(C)CC=C(c6ccc(C(=O)O)cc6)C(C)(C)[C@@H]5CC[C@]43C)[C@@H]12 [Example 31, 4-((1R,3aS,5aR,5bR,7aR,11aS,11bR,13aR,13bR)-3a-((carboxymethylamino)methyl)-5a,5b,8,8,11a-pentamethyl-1-(prop-1-en-2-yl)-2,3,3a,4,5,5a,5b,6,7,7a,8,11,11a,11b,12,13,13a,13b-octadecahydro-1H-cyclopenta[a]chrysen-9-yl)benzoic acid] | < 100 nM
C=C(C)[C@@H]1CC[C@]2(CNCCN3CCSCC3)CC[C@]3(C)[C@H](CC[C@@H]4[C@@]5(C)CC=C(c6ccc(C(=O)O)cc6)C(C)(C)[C@@H]5CC[C@]43C)[C@@H]12 [Example 86] | < 100 nM
C=C(C)[C@@H]1CC[C@]2(CNC(=O)CCN(C)C)CC[C@]3(C)[C@H](CC[C@@H]4[C@@]5(C)CC=C(c6ccc(C(=O)O)cc6)C(C)(C)[C@@H]5CC[C@]43C)[C@@H]12 [Example 142, 4-((1R,3aS,5aR,5bR,7aR,11aS,11bR,13aR,13bR)-3a-((3-(dimethylamino)propanamido)methyl)-5a,5b,8,8,11a-pentamethyl-1-(prop-1-en-2-yl)-2,3,3a,4,5,5a,5b,6,7,7a,8,11,11a,11b,12,13,13a,13b-octadecahydro-1H-cyclopenta[a]chrysen-9-yl)benzoic acid] | < 100 nM
C=C(C)[C@@H]1CC[C@]2(CNCCCO)CC[C@]3(C)[C@H](CC[C@@H]4[C@@]5(C)CC=C(c6ccc(C(=O)O)cc6)C(C)(C)[C@@H]5CC[C@]43C)[C@@H]12 [Example 69, 4-((1R,3aS,5aR,5bR,7aR,11aS,11bR,13aR,13bR)-3a-((3-hydroxypropylamino)methyl)-5a,5b,8,8,11a-pentamethyl-1-(prop-1-en-2-yl)-2,3,3a,4,5,5a,5b,6,7,7a,8,11,11a,11b,12,13,13a,13b-octadecahydro-1H-cyclopenta[a]chrysen-9-yl)benzoic acid] | < 100 nM
C=C(C)[C@@H]1CC[C@]2(CNCC(=O)N3CCS(=O)(=O)CC3)CC[C@]3(C)[C@H](CC[C@@H]4[C@@]5(C)CC=C(c6ccc(C(=O)O)cc6)C(C)(C)[C@@H]5CC[C@]43C)[C@@H]12 [Example 108, 4-((1R,3aS,5aR,5bR,7aR,11aS,11bR,13aR,13bR)-3a-(((2-(1,1-dioxido-4-thiomorpholinyl)-2-oxoethyl)amino)methyl)-1-isopropenyl-5a,5b,8,8,11a-pentamethyl-2,3,3a,4,5,5a,5b,6,7,7a,8,11,11a,11b,12,13,13a,13b-octadecahydro-1H-cyclopenta[a]chrysen-9-yl)benzoic acid] | < 100 nM
C=C(C)[C@@H]1CC[C@]2(CNCCN3CCCC3=O)CC[C@]3(C)[C@H](CC[C@@H]4[C@@]5(C)CC=C(c6ccc(C(=O)O)c(F)c6)C(C)(C)[C@@H]5CC[C@]43C)[C@@H]12 [Example 91, 2-fluoro-4-((1R,3aS,5aR,5bR,7aR,11aS,11bR,13aR,13bR)-5a,5b,8,8,11a-pentamethyl-3a-((2-(2-oxopyrrolidin-1-yl)ethylamino)methyl)-1-(prop-1-en-2-yl)-2,3,3a,4,5,5a,5b,6,7,7a,8,11,11a,11b,12,13,13a,13b-octadecahydro-1H-cyclopenta[a]chrysen-9-yl)benzoic acid] | < 100 nM
